Laboratory results as given in patent US20150141439A1, “PHARMACEUTICAL COMPOSITION FOR THE PREVENTION OR TREATMENT OF BRAIN TUMOR OR TEMODAL RESISTANT GLIOBLASTOMA MULTIFORM COMPRISING AZATHIOPRINE AS AN ACTIVE INGREDIENT” (KOREA RESEARCH INSTITUTE OF CHEMICAL TECHNOLOGY, priority 2012, published 2015).

How the values were obtained:
[1] = system: glioblastoma multiform cells transplanted in the brain of a mouse; experiment: Glioblastoma multiform orthotopic animal model, survival; assay type: in vivo
Experimental: Following experiment was performed to investigate the radiosensitizing effect and chemosensitizing effect of the compound of formula 1 (azathioprine) in the glioblastoma multiform orthotopic animal model.
Particularly, to investigate the resistance against Temodal or radiotherapy in glioblastoma multiform, glioblastoma multiform cells were cultured. The cultured cells (2×10^5/5 μl) were transplanted in the brain of a mouse. 17 days later, the administration of Temodal (65 mg/kg, oral-administration) or radiotherapy (2 Gy) began, which continued for 5 days. The average survival period was investigated. […] For the comparison, the survival period of the group treated with “Avastin”, the well-known anticancer agent, is also presented.
Glioblastoma multiform, glioblastoma multiform cells were cultured. The cultured cells (2×10^5/5 μl) were transplanted in the brain of a mouse. 17 days later, the administration of Temodal (65 mg/kg, oral-administration) or radiotherapy (2 Gy) began, which continued for 5 days. Unlike the above experiment, the compound of formula 1 of the present invention (azathioprine) was co-treated to the mouse by oral-administration at the dose of 20 mg/kg every day after 11 days from the glioblastoma multiform transplantation in the mouse brain. Then, the average survival period was investigated.

[2] = system: HCT-116 Human colorectal carcinoma; experiment: Secondary cytotoxicity test, HCT-116; assay type: cell-based
Experimental: (§1) Particularly, the cell growth inhibition effect was measured by WST-1 cell proliferation assay [http://www.roche-applied-science.com/PROD_INF/MANUALS/CELL_MAN/apoptosis—087—088.pdf]. The compound of formula 1 was loaded in a 384-well cell culture plate. Three types of glioblastoma multiform cell lines [proneural subtype (559T), mesenchymal subtype (592T), and classical subtype (626T)], normal human astrocytes (NHA), a lung cancer cell line (A549), and a glioblastoma multiform cell line (U87MG) were distributed in the plate at the density of 4.5×10^3 cells/well, and the medium was filled up to make 50 μl per well. At this time, the concentration of the solvent DMSO for the compound of formula 1 was no more than 0.2%. After culturing the cells for 72 hours, 5 mg/ml of WST-1 reagent was added by 5 μl per well, followed by reaction for 3˜4 hours. Then OD450 was measured to investigate the effect of the compound of formula 1 on cell proliferation.
(§2) To investigate the cell growth inhibition effect of the compound of formula 1 of the present invention (azathioprine) in many different cell lines, secondary cytotoxicity test was performed with the cell lines listed in Table 5 by the same manner as described in Example 1.

[3] = system: classical subtype glioblastoma multiform (626T); experiment: cells; conditions: Homo sapiens, 72 h
Experimental: as §1

[4] = system: mesenchymal subtype glioblastoma multiform (592T); experiment: cells; conditions: Homo sapiens, 72 h
Experimental: as §1

[5] = system: proneural subtype glioblastoma multiform (559T); experiment: cells; conditions: Homo sapiens, 72 h
Experimental: as §1

[6] = system: glioblastoma multiform cell line (U87MG); experiment: cells
Experimental: as §1

[7] = system: lung cancer cell line (A549); experiment: cells; conditions: Homo sapiens, A549, 72 h
Experimental: as §1

[8] = system: cells of lung cancer with brain metastasis transplanted in the mouse brain; experiment: Animal test with cells of lung cancer with brain metastasis, survival; assay type: in vivo; conditions: azathioprine 2 mg/kg oral every day after day 11, Temodal (TMZ) 65 mg/kg oral 5 days from day 17
Experimental: The cells of lung cancer with brain metastasis were obtained from Samsung Hospital (Seoul) and cultured. The cultured cells (2×10^5/5 μl) were transplanted in the mouse brain. 17 days later, Temodal administration (65 mg/kg, oral administration) began, which continued for 5 days. The compound of formula 1 of the present invention (azathioprine) was co-treated to the mouse by oral-administration at the dose of 2 mg/kg every day after 11 days from the transplantation of the cells of lung cancer with brain metastasis in the mouse brain. Then, the average survival period was investigated.

[9] = system: HaCat Human keratinocyte; experiment: Secondary cytotoxicity test, HaCat; assay type: cell-based
Experimental: as §1, §2

[10] = system: U2932 Human DLBCL (Diffuse large B-cell lymphoma); experiment: Secondary cytotoxicity test, U2932; assay type: cell-based
Experimental: as §1, §2

[11] = system: PC3 Human prostate adenocarcinoma; experiment: Secondary cytotoxicity test, PC3; assay type: cell-based; conditions: PC-3
Experimental: as §1, §2

[12] = read-out: Cell Growth Inhibition (% Inhibition)
[13] = Homo sapiens, U-87 MG, 72 h, read-out: Cell Growth Inhibition (% Inhibition)

## Cn1cnc([N+](=O)[O-])c1Sc1ncnc2nc[nH]c12 [Azathioprine, 6-(1-methyl-4-nitro-1H-imidazol-5-ylthio)-7H-purine]
[1]; radiotherapy (2 Gy) 5 days from day 17 + azathioprine 20 mg/kg oral every day after day 11, control 28 days
  Average Survival Period: 41 days
[1]; radiotherapy (2 Gy) 5 days from day 17 + azathioprine 20 mg/kg oral every day after day 11, vs. control
  Survival Period Extension Rate (%): 44%
[2]
  IC50: 5.5 µM
[3]
  GI50: 3.1 µM
[3]; [12]
  inhibition at 0.032 µM: 20.2%
  inhibition at 0.1 µM: 34.9%
  inhibition at 0.32 µM: 30%
  inhibition at 1 µM: 42.5%
  inhibition at 3.2 µM: 61.8%
  inhibition at 10 µM: 76.3%
[4]
  GI50: 5.5 µM
[4]; [12]
  inhibition at 0.032 µM: -3.9%
  inhibition at 0.1 µM: 2.1%
  inhibition at 0.32 µM: 8.3%
  inhibition at 1 µM: 22.6%
  inhibition at 3.2 µM: 46%
  inhibition at 10 µM: 57.2%
[5]
  GI50: 1.3 µM
[5]; [12]
  inhibition at 0.032 µM: -4.2%
  inhibition at 0.1 µM: 2.6%
  inhibition at 0.32 µM: 9.7%
  inhibition at 1 µM: 35.9%
  inhibition at 3.2 µM: 65.8%
  inhibition at 10 µM: 78.6%
[6]; Homo sapiens, U-87 MG, 72 h
  GI50: > 10 µM
[6]; [13]
  inhibition at 0.032 µM: 3.2%
  inhibition at 0.1 µM: -9.9%
  inhibition at 0.32 µM: 10.5%
  inhibition at 1 µM: 6.5%
  inhibition at 3.2 µM: 3.2%
  inhibition at 10 µM: -12.7%
[6]; U87MG, WST-1, up to 10 μM
  cancer cell growth inhibition: did not inhibit the cancer cell growth
[7]
  GI50: > 10 µM
[7]; [12]
  inhibition at 0.032 µM: 6.7%
  inhibition at 0.1 µM: 15.3%
  inhibition at 0.32 µM: 21.5%
  inhibition at 1 µM: 24.2%
  inhibition at 3.2 µM: 26%
  inhibition at 10 µM: 32%
[8]
  Average Survival Period: 63 days
  Survival Period Extension Rate (%): 59-70%
[9]
  IC50: 6.3 µM
[10]
  IC50: 4.2 µM
[11]
  IC50: 6.7 µM
